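Growth conditions: 96-well plates. Treatment: test compound, 48 hours, 5 concentrations. Analysis: linear interpolation between bracketing concentrations; unreached endpoints set to highest concentration. GI50 is the concentration that inhibits growth by half.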 Calls of active or inactive are those of the source. Cut-off read from the data, not from the text of the source: active = GI50 up to about 1.1 µM and inactive = higher.
Experiments:
Assay in all cases: growth of human tumour cells (NCI), 48 h
786-0 = test system: 786-0
A498 = test system: A498
ACHN = test system: ACHN
COLO 205 = test system: COLO 205
HOP-62 = test system: HOP-62
HT-29 = test system: HT-29
Hs-578T = test system: Hs-578T
M14 = test system: M14
MDA-MB-231 = test system: MDA-MB-231
MDA-MB-435 = test system: MDA-MB-435
MOLT-4 = test system: MOLT-4
OVCAR-5 = test system: OVCAR-5
RPMI-8226 = test system: RPMI-8226
SF-295 = test system: SF-295
SF-539 = test system: SF-539
SK-MEL-2 = test system: SK-MEL-2
SNB-19 = test system: SNB-19
TK-10 = test system: TK-10
U-251 = test system: U-251
SNB-75 = test system: SNB-75

Compound | GI50 (786-0) | GI50 (A498) | GI50 (ACHN) | GI50 (COLO 205) | GI50 (HOP-62) | GI50 (HT-29) | GI50 (Hs-578T) | GI50 (M14) | GI50 (MDA-MB-231) | GI50 (MDA-MB-435) | GI50 (MOLT-4) | GI50 (OVCAR-5) | GI50 (RPMI-8226) | GI50 (SF-295) | GI50 (SF-539) | GI50 (SK-MEL-2) | GI50 (SNB-19) | GI50 (TK-10) | GI50 (U-251) | GI50 (SNB-75)
COc1ccc(C#Cn2nnc3ccccc32)cc1 | > 100 µM (inactive) | > 100 µM (inactive) | > 100 µM (inactive) | > 100 µM (inactive) | > 100 µM (inactive) | > 100 µM (inactive) | > 100 µM (inactive) | > 100 µM (inactive) | > 100 µM (inactive) | > 100 µM (inactive) | 71.6 µM (inactive) | > 100 µM (inactive) | 26.1 µM (inactive) | > 100 µM (inactive) | > 100 µM (inactive) | 92 µM (inactive) | > 100 µM (inactive) | > 100 µM (inactive) | > 100 µM (inactive) | –
Cc1nn(C(=O)c2ccc(Cl)cc2)c2c1C(c1ccccc1)SC(=N)N2 (centres undefined) | > 10 µM (inactive) | – | > 10 µM (inactive) | > 10 µM (inactive) | > 10 µM (inactive) | > 10 µM (inactive) | > 10 µM (inactive) | > 10 µM (inactive) | > 10 µM (inactive) | > 10 µM (inactive) | > 10 µM (inactive) | > 10 µM (inactive) | > 10 µM (inactive) | > 10 µM (inactive) | > 10 µM (inactive) | > 10 µM (inactive) | > 10 µM (inactive) | > 10 µM (inactive) | > 10 µM (inactive) | > 10 µM (inactive)
CCOc1cn(C2CC(O)C(CO)O2)c(=O)[nH]c1=O (centres undefined) | > 100 µM (inactive) | 45.8 µM (inactive) | > 100 µM (inactive) | > 100 µM (inactive) | > 100 µM (inactive) | > 100 µM (inactive) | > 100 µM (inactive) | > 100 µM (inactive) | > 100 µM (inactive) | > 100 µM (inactive) | > 100 µM (inactive) | > 100 µM (inactive) | > 100 µM (inactive) | – | – | > 100 µM (inactive) | > 100 µM (inactive) | > 100 µM (inactive) | > 100 µM (inactive) | > 100 µM (inactive)
Cc1ccc(C(=O)OC(C)C)cc1/N=N/N(C)C | > 100 µM (inactive) | – | > 88.5 µM (inactive) | > 100 µM (inactive) | 97.5 µM (inactive) | > 100 µM (inactive) | > 100 µM (inactive) | > 100 µM (inactive) | > 100 µM (inactive) | > 100 µM (inactive) | > 100 µM (inactive) | > 100 µM (inactive) | > 100 µM (inactive) | 58.6 µM (inactive) | > 100 µM (inactive) | > 100 µM (inactive) | > 69.8 µM (inactive) | > 100 µM (inactive) | > 71.4 µM (inactive) | –
CC(=O)NC1(C)C(C)C2CC1C(C)C2(C)C (centres undefined) | > 100 µM (inactive) | > 100 µM (inactive) | > 100 µM (inactive) | > 100 µM (inactive) | > 100 µM (inactive) | > 100 µM (inactive) | > 100 µM (inactive) | > 100 µM (inactive) | > 100 µM (inactive) | > 100 µM (inactive) | > 100 µM (inactive) | > 100 µM (inactive) | – | > 100 µM (inactive) | > 100 µM (inactive) | – | > 100 µM (inactive) | > 100 µM (inactive) | > 100 µM (inactive) | > 100 µM (inactive)
Cc1ccc(/N=N/c2c(C)c(C#N)c(=S)n(C3OC(CO)C(O)C(O)C3O)c2C)cc1 (centres undefined) | 28.4 µM (inactive) | – | 34 µM (inactive) | 38.7 µM (inactive) | 34.3 µM (inactive) | 30.9 µM (inactive) | 17 µM (inactive) | 20.4 µM (inactive) | 24.4 µM (inactive) | 24.6 µM (inactive) | 12.9 µM (inactive) | 38.3 µM (inactive) | 46 µM (inactive) | 36.3 µM (inactive) | 40.9 µM (inactive) | 30.6 µM (inactive) | 27.7 µM (inactive) | 63.1 µM (inactive) | 21.2 µM (inactive) | 25.4 µM (inactive)
CC(C)(C)C(=O)CC(=O)C(F)(F)C(F)(F)C(F)(F)F | 17 µM (inactive) | – | 15.3 µM (inactive) | 19 µM (inactive) | 18.3 µM (inactive) | 17.1 µM (inactive) | 14.6 µM (inactive) | 16 µM (inactive) | 15.5 µM (inactive) | 15.5 µM (inactive) | 17.9 µM (inactive) | 35.4 µM (inactive) | 11.1 µM (inactive) | 17.5 µM (inactive) | 24.8 µM (inactive) | 16.4 µM (inactive) | 20 µM (inactive) | 18.2 µM (inactive) | 18.4 µM (inactive) | 16.6 µM (inactive)
COC1CC(OC2OC(CO)C(O)C(O)C2O)/C(=C\C#N)C(O)C1OC (centres undefined) | > 100 µM (inactive) | > 100 µM (inactive) | > 100 µM (inactive) | > 100 µM (inactive) | > 100 µM (inactive) | > 100 µM (inactive) | > 100 µM (inactive) | > 100 µM (inactive) | > 100 µM (inactive) | > 100 µM (inactive) | > 100 µM (inactive) | > 100 µM (inactive) | > 100 µM (inactive) | > 100 µM (inactive) | > 100 µM (inactive) | > 100 µM (inactive) | > 100 µM (inactive) | > 100 µM (inactive) | > 100 µM (inactive) | –
Cc1cc2c(c(=O)o1)C1=S(SC(c3ccccc3)=C1)S2 (centres undefined) | 15 µM (inactive) | 13.9 µM (inactive) | 34.7 µM (inactive) | > 100 µM (inactive) | 20.8 µM (inactive) | 38.9 µM (inactive) | 41.2 µM (inactive) | 45.5 µM (inactive) | 57.4 µM (inactive) | – | > 100 µM (inactive) | 78.9 µM (inactive) | 55.6 µM (inactive) | 27.3 µM (inactive) | 24.3 µM (inactive) | 66.4 µM (inactive) | 28.2 µM (inactive) | 32.2 µM (inactive) | 22.5 µM (inactive) | 26 µM (inactive)
COC(=O)c1c(C)cccc1C1CN=NC12Cc1cc(C)cc(C)c1C2=O (centres undefined) | 42.7 µM (inactive) | 24.9 µM (inactive) | 41.5 µM (inactive) | 17.2 µM (inactive) | 44 µM (inactive) | 21.5 µM (inactive) | 73.1 µM (inactive) | 46.1 µM (inactive) | 12.4 µM (inactive) | 37.2 µM (inactive) | 32.1 µM (inactive) | 48 µM (inactive) | – | 35.1 µM (inactive) | 41.3 µM (inactive) | 27.7 µM (inactive) | 73.3 µM (inactive) | 32.4 µM (inactive) | 44.7 µM (inactive) | 27 µM (inactive)
CC1C2CCC3C(O)C2(CC(O)C2(O)C1CC(O)C2(C)C)CC3(C)O (centres undefined) | > 100 µM (inactive) | > 100 µM (inactive) | > 100 µM (inactive) | > 100 µM (inactive) | – | > 100 µM (inactive) | > 100 µM (inactive) | > 100 µM (inactive) | 35.8 µM (inactive) | > 100 µM (inactive) | > 10 µM (inactive) | > 100 µM (inactive) | – | > 100 µM (inactive) | > 100 µM (inactive) | > 100 µM (inactive) | > 100 µM (inactive) | > 100 µM (inactive) | > 100 µM (inactive) | –
COCOc1cc(OC)ccc1C=O | 36.6 µM (inactive) | – | 95.7 µM (inactive) | 24.9 µM (inactive) | 72.3 µM (inactive) | 25.6 µM (inactive) | 14.8 µM (inactive) | 35.2 µM (inactive) | 51.3 µM (inactive) | 8.39 µM (inactive) | 37.2 µM (inactive) | > 100 µM (inactive) | – | 39 µM (inactive) | 21.5 µM (inactive) | 34 µM (inactive) | 46.1 µM (inactive) | 31.6 µM (inactive) | 30 µM (inactive) | 27.5 µM (inactive)
NC1=CN2c3ccccc3N(CC(=O)N3CCOCC3)C2C=C1 (centres undefined) | > 100 µM (inactive) | 52.1 µM (inactive) | > 100 µM (inactive) | > 100 µM (inactive) | > 100 µM (inactive) | > 100 µM (inactive) | > 100 µM (inactive) | > 100 µM (inactive) | > 100 µM (inactive) | > 100 µM (inactive) | > 100 µM (inactive) | > 100 µM (inactive) | – | > 100 µM (inactive) | > 100 µM (inactive) | > 100 µM (inactive) | > 100 µM (inactive) | > 100 µM (inactive) | > 100 µM (inactive) | > 100 µM (inactive)
COc1cccc(-c2nnc3c(-c4ccccc4)nc4ccccc4n23)c1 | 49.1 µM (inactive) | 6.58 µM (inactive) | > 62.2 µM (inactive) | 8.57 µM (inactive) | 58.1 µM (inactive) | 19.2 µM (inactive) | 57.9 µM (inactive) | 29.5 µM (inactive) | 24.5 µM (inactive) | 2.91 µM (inactive) | 9.53 µM (inactive) | > 100 µM (inactive) | 3.45 µM (inactive) | 35.6 µM (inactive) | 65.8 µM (inactive) | 10.1 µM (inactive) | > 100 µM (inactive) | 36.3 µM (inactive) | 21.8 µM (inactive) | –
CC1(C)C2CCC1(C)C(OC(=O)/C=C/C(=O)OC1CC3CCC1(C)C3(C)C)C2 (centres undefined) | 72.9 µM (inactive) | > 100 µM (inactive) | > 100 µM (inactive) | 75.2 µM (inactive) | > 100 µM (inactive) | 40 µM (inactive) | 63 µM (inactive) | 76.9 µM (inactive) | > 100 µM (inactive) | 67.3 µM (inactive) | 16.9 µM (inactive) | > 100 µM (inactive) | – | > 100 µM (inactive) | > 100 µM (inactive) | 61.7 µM (inactive) | 51.4 µM (inactive) | > 100 µM (inactive) | 46.1 µM (inactive) | 0.902 µM (active)

Reference: ChEMBL document CHEMBL1201862, “PubChem BioAssay data set” (2004)
